Bounds are passed on as bounds.

The target in one experiment is T1, Cytochrome P450 1B1 (Homo sapiens, UniProt Q16678).
T1 sequence (Q16678 whole entry): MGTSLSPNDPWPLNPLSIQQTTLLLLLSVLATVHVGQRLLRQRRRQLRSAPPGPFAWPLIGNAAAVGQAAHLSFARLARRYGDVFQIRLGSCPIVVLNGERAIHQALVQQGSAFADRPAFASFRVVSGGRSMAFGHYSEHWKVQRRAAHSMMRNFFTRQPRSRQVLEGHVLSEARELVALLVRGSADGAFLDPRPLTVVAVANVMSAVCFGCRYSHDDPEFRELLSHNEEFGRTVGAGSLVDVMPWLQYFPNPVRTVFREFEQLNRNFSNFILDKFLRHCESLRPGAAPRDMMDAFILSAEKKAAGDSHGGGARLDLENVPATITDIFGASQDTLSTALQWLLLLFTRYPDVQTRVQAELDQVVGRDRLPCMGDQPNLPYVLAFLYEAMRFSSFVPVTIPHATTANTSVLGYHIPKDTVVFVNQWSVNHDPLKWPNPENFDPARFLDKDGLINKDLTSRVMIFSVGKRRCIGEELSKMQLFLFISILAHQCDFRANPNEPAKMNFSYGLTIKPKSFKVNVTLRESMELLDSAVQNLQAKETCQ
Briefly: Inhibition of CYP1B1. The format is ADME.

Another experiment deals with T2, Cytochrome P450 1A1 (Homo sapiens, UniProt P04798).
T2 sequence (P04798 whole entry): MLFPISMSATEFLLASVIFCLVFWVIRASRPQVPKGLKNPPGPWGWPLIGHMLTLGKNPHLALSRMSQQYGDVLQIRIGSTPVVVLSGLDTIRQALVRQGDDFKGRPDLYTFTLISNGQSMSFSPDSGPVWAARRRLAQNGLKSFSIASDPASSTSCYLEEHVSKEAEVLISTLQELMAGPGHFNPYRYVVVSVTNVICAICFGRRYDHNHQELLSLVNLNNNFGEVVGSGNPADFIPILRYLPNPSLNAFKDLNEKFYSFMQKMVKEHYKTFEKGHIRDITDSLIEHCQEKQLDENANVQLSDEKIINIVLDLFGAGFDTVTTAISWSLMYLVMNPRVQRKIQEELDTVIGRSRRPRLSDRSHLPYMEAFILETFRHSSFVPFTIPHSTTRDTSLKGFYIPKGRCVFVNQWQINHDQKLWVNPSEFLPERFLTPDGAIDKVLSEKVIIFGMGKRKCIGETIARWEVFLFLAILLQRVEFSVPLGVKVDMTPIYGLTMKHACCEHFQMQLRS
Briefly: Inhibition of CYP1A1. It is filed as ADME.

For a further experiment, the target named is T3, Cytochrome P450 1A2 (Homo sapiens, UniProt P05177).
T3 sequence (P05177 whole entry): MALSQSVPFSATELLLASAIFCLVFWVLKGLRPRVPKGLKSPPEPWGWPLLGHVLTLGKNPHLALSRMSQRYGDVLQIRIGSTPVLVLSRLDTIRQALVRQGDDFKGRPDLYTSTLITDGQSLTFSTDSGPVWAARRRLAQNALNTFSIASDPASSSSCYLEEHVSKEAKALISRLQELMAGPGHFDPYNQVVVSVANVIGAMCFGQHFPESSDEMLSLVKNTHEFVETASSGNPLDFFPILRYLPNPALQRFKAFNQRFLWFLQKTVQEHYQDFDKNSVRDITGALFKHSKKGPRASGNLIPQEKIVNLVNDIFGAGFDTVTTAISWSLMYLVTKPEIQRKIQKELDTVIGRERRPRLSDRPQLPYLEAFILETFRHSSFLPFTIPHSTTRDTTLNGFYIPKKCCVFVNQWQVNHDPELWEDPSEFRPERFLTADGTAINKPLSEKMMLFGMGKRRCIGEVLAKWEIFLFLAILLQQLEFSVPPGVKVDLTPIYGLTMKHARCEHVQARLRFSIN
As to the kind of experiment: Inhibition of CYP1A2. The format is ADME.

Experiment [1] has as its target T4, 1,25-dihydroxyvitamin D(3) 24-hydroxylase, mitochondrial (Homo sapiens, UniProt Q07973).
T4 sequence (Q07973 whole entry): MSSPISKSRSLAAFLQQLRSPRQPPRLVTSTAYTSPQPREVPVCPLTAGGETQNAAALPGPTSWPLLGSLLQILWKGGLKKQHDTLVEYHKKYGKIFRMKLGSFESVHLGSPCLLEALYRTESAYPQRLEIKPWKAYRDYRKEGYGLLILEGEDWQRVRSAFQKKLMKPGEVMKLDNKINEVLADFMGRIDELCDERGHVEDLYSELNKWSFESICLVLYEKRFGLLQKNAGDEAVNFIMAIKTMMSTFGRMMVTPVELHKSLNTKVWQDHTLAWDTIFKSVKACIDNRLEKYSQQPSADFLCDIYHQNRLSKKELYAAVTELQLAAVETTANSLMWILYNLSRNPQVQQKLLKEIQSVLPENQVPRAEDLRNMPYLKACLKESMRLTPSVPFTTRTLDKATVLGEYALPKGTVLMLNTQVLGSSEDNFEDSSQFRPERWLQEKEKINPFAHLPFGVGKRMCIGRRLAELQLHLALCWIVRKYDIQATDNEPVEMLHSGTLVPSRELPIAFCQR
As to the kind of experiment: Inhibition of CYP24 in human keratinocytes. The format is cell-based.

The target in experiment [2] is T5, 25-hydroxyvitamin D-1 alpha hydroxylase, mitochondrial (Homo sapiens, UniProt O15528).
T5 sequence (O15528 whole entry): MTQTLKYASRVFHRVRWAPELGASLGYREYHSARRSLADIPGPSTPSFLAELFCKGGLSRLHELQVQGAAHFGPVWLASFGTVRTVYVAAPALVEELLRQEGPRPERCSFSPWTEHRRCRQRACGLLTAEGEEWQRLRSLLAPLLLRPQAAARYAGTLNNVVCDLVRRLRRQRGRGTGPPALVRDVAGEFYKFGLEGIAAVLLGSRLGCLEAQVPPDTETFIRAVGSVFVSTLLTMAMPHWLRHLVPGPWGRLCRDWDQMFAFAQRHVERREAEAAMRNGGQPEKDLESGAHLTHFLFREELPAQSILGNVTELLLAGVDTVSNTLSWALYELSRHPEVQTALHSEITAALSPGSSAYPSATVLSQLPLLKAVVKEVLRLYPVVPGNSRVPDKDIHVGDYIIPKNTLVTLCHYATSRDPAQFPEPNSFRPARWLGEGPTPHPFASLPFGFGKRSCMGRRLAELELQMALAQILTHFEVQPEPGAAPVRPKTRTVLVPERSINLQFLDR
Briefly: Inhibition of CYP27B1 in human keratinocytes. It is filed as cell-based.

Experiment [3] deals with T4, 1,25-dihydroxyvitamin D(3) 24-hydroxylase, mitochondrial. Briefly: Inhibition of CYP24.
The target of experiment [4] is T5, 25-hydroxyvitamin D-1 alpha hydroxylase, mitochondrial. Briefly: Inhibition of CYP27B1.
Experiment [5] has as its target T6, Sterol 26-hydroxylase, mitochondrial (Homo sapiens, UniProt Q02318).
T6 sequence (Q02318 whole entry): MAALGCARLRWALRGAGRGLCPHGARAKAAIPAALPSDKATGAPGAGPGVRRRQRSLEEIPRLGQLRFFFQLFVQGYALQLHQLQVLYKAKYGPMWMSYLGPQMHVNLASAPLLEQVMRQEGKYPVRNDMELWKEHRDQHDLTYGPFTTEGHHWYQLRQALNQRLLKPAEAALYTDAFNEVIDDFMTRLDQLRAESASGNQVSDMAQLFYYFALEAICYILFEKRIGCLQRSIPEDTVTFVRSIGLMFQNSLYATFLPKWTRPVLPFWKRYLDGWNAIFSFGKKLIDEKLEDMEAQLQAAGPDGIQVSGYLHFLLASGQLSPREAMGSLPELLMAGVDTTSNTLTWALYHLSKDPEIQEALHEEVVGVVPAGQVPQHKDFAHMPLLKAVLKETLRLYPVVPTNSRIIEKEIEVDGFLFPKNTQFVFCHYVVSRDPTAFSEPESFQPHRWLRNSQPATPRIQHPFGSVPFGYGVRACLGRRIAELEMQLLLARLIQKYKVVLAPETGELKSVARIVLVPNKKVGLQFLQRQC
As to the kind of experiment: Inhibition of CYP27A1.

Another experiment addresses T7, Cytochrome P450 26A1 (Homo sapiens, UniProt O43174).
T7 sequence (O43174 whole entry): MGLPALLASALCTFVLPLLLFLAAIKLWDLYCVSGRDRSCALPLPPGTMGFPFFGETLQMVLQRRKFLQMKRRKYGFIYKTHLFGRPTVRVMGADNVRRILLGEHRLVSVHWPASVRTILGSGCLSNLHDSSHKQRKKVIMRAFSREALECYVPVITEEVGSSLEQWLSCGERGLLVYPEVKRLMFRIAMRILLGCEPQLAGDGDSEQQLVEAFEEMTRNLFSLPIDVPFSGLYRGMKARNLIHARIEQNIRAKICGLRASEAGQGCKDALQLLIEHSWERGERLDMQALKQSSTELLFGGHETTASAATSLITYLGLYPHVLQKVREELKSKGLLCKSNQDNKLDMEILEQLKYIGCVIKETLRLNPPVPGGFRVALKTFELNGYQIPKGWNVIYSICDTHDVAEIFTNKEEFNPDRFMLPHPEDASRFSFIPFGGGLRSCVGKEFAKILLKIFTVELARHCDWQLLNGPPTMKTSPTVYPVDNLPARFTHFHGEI
As to the kind of experiment: Inhibition of CYP26.

Experiment [6] addresses T8, Aryl hydrocarbon receptor (Homo sapiens, UniProt P35869).
T8 sequence (P35869 whole entry): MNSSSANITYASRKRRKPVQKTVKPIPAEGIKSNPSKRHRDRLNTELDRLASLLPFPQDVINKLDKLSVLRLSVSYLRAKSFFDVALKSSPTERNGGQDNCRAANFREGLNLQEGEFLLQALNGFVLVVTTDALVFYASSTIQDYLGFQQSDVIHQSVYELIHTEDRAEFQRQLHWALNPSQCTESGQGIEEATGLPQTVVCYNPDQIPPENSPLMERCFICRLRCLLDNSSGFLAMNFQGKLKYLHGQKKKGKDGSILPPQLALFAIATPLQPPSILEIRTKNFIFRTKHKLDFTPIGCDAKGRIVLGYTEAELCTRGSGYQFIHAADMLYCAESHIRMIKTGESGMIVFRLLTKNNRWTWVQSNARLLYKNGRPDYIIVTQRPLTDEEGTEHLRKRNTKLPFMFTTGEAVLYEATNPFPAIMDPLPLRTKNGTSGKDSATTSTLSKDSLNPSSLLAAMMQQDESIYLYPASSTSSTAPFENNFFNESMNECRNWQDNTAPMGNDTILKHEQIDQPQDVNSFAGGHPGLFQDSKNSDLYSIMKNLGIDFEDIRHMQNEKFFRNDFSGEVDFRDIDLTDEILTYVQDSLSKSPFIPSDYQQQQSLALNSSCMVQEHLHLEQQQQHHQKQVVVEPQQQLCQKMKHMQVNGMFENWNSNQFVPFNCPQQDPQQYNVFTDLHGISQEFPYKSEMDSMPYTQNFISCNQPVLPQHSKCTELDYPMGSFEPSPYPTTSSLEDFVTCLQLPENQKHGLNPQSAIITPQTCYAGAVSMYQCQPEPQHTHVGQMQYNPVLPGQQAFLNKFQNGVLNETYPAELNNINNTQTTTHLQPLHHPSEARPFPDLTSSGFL
As to the kind of experiment: Inhibition of aryl hydrocarbon receptor.

A short description of experiment [7]: Inhibition of cigarette smoke condensate-induced growth of immortalized human BEAS-2B cells by soft agar colony assay. It is filed as functional.

With `COc1cc(/C=C\c2cccs2)cc(OC)c1`, the IC50 against Cytochrome P450 1B1 was determined as 2 nM; against Cytochrome P450 1A1 it was 61 nM; at Cytochrome P450 1A2 it was 11 nM.
On to `CC#Cc1ccc2c(ccc3ccccc32)c1`, for which the half-maximal inhibitory concentration (IC50) against Cytochrome P450 1B1 came to 30 nM; against Cytochrome P450 1A1, 150 nM; on Cytochrome P450 1A2, 60 nM.
In the case of `O=C(NCC(c1ccccc1)n1ccnc1)c1ccc(-c2ccc(Cl)cc2)cc1` (stereo not drawn), the figures for the IC50 in experiment [1] and in experiment [2] were 15 nM and 616 nM, respectively.
With `C=C1/C(=C\C=C2/CCC[C@]3(C)C([C@H](C)CC[S+](=N)([O-])c4ccccc4)=CCC23)C[C@@H](O)C[C@@H]1O` (stereo partly drawn), the values for the IC50 in experiment [3], in [4] and in experiment [5] were 7.4 nM, 554 nM and above 1000 nM, respectively.
On to `Clc1cccc(C(c2ccc3nc[nH]c3c2)N2C=NCC2)c1` (stereo not drawn), for which inhibition against Cytochrome P450 26A1 was half-maximal at 2200 nM (IC50).
In experiment [6], `O=c1c(O)c(-c2ccc(O)cc2)oc2cc(O)cc(O)c12` [KAEMPFEROL] displayed an IC50 of 28 nM. Besides, in experiment [7], it took 10000 nM to reach the 90% level (IC90).
Turning to `Clc1ccc(-c2cc(Cl)c(Cl)c(Cl)c2)cc1Cl` [POLYCHLORINATED BIPHENYL 126], at Cytochrome P450 1B1, the IC50 was found to be 11 nM.
Consider `c1cc2ccc3cccc4ccc(c1)c2c34` [PYRENE], for which the IC50 came to 2 nM against Cytochrome P450 1B1, 41 nM at Cytochrome P450 1A1 and 7 nM against Cytochrome P450 1A2.

The IC50 is the concentration that inhibits the measured activity by half. Read a low IC50 as greater potency. As a reminder, the IC90 is the point of the concentration-response curve where the effect stands at 90%. A low value points to greater potency.

For the origin of these results see ChEMBL document CHEMBL1140636, “Targeting cytochrome P450 enzymes: a new approach in anti-cancer drug development” (Bioorg Med Chem, 2007).
